Test results reported in patent US10131652B2, “Pyrimidinyloxy benzene derivatives as herbicides” (E. I. DU PONT DE NEMOURS AND COMPANY, priority 2014, dated 2018).
Where two headings read alike, the source gives them in different places.

Tests used:
Test in all cases: Test D pre-/postemergence plant response
Type in all cases: in vivo
[1] = tested on: morningglory (Ipomoea coccinea); conditions: Ipomoea; for pest or weed control at 31 g/ha: 31 g ai/ha; for pest or weed control at 62 g/ha: 62 g ai/ha; for pest or weed control at 125 g/ha: 125 g ai/ha
Procedure, shortened: (§1)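 Plants are held in a greenhouse 13 to 15 days after spraying, then injury is rated by eye relative to controls on a 0 to 100 scale. Treatments are preemergence on freshly sown loam/sand pots or postemergence at 1- to 4-leaf stage in peat-based medium; surfactant-containing solvent formulation.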

[2] = tested on: soybean (Glycine max); conditions: Glycine max; for plant injury at 31 g/ha: 31 g ai/ha; for plant injury at 62 g/ha: 62 g ai/ha; for plant injury at 125 g/ha: 125 g ai/ha
Procedure, shortened: as §1

[3] = tested on: velvetleaf (Abutilon theophrasti); conditions: Abutilon theophrasti; for pest or weed control at 31 g/ha: 31 g ai/ha; for pest or weed control at 62 g/ha: 62 g ai/ha; for pest or weed control at 125 g/ha: 125 g ai/ha
Procedure, shortened: as §1

[4] = tested on: waterhemp (common waterhemp, Amaranthus rudis); conditions: Amaranthus tuberculatus; for pest or weed control at 31 g/ha: 31 g ai/ha; for pest or weed control at 62 g/ha: 62 g ai/ha; for pest or weed control at 125 g/ha: 125 g ai/ha
Procedure, shortened: as §1

[5] = tested on: winter wheat (Triticum aestivum); conditions: Triticum aestivum; for plant injury at 31 g/ha: 31 g ai/ha; for plant injury at 62 g/ha: 62 g ai/ha; for plant injury at 125 g/ha: 125 g ai/ha
Procedure, shortened: as §1

[6] = post-emergence, Postemergence, scale 0 to 100, 0 no effect, 100 complete control, read-out: Plant response rating, Morningglory
[7] = pre-emergence, Preemergence, scale 0 to 100 (0 no effect, 100 complete control), read-out: Plant response rating, Morningglory
[8] = post-emergence, Postemergence, scale 0 to 100, 0 no effect, 100 complete control, read-out: Plant response rating, Soybean
[9] = pre-emergence, Preemergence, scale 0 to 100 (0 no effect, 100 complete control), read-out: Plant response rating, Soybean
[10] = post-emergence, Postemergence, scale 0 to 100, 0 no effect, 100 complete control, read-out: Plant response rating, Velvetleaf
[11] = pre-emergence, Preemergence, scale 0 to 100 (0 no effect, 100 complete control), read-out: Plant response rating, Velvetleaf
[12] = post-emergence, Postemergence, scale 0 to 100, 0 no effect, 100 complete control, read-out: Plant response rating, Waterhemp
[13] = pre-emergence, Preemergence, scale 0 to 100 (0 no effect, 100 complete control), read-out: Plant response rating, Waterhemp
[14] = post-emergence, Postemergence, scale 0 to 100, 0 no effect, 100 complete control, read-out: Plant response rating, Wheat
[15] = pre-emergence, Preemergence, scale 0 to 100 (0 no effect, 100 complete control), read-out: Plant response rating, Wheat

Compound: Fc1cccc(Oc2ncc(Br)cn2)c1-c1cc(C(F)F)no1 [Compound 145, 5-bromo-2-[2-[3-(difluoromethyl)-5-isoxazolyl]-3-fluorophenoxy]pyrimidine]
- pest or weed control at 31 g/ha ([1]; post-emergence, Postemergence, scale 0 to 100 (0 no effect, 100 complete control), read-out: Morningglory plant response rating): 85%
- pest or weed control at 62 g/ha [1, 6]: 85%
- pest or weed control at 125 g/ha [1, 6]: 80%
- pest or weed control at 125 g/ha ([1]; pre-emergence, Preemergence, read-out: Plant response rating (scale 0 to 100), Morningglory): 100%
- pest or weed control at 16 g/ha ([1]; pre-emergence, Preemergence, 16 g ai/ha, scale 0 to 100 (0 no effect, 100 complete control), read-out: Plant response rating, Morningglory): 15%
- pest or weed control at 31 g/ha [1, 7]: 55%
- pest or weed control at 62 g/ha [1, 7]: 90%
- plant injury at 31 g/ha ([2]; post-emergence, Postemergence, scale 0 to 100 (0 no effect, 100 complete control), read-out: Soybean plant response rating): 60%
- plant injury at 62 g/ha [2, 8]: 75%
- plant injury at 125 g/ha [2, 8]: 75%
- plant injury at 125 g/ha ([2]; pre-emergence, Preemergence, read-out: Plant response rating (scale 0 to 100), Soybean): 90%
- plant injury at 16 g/ha ([2]; pre-emergence, Preemergence, 16 g ai/ha, scale 0 to 100 (0 no effect, 100 complete control), read-out: Plant response rating, Soybean): 10%
- plant injury at 31 g/ha [2, 9]: 60%
- plant injury at 62 g/ha [2, 9]: 75%
- pest or weed control at 31 g/ha ([3]; post-emergence, Postemergence, scale 0 to 100 (0 no effect, 100 complete control), read-out: Velvetleaf plant response rating): 70%
- pest or weed control at 62 g/ha [3, 10]: 75%
- pest or weed control at 125 g/ha [3, 10]: 80%
- pest or weed control at 125 g/ha ([3]; pre-emergence, Preemergence, read-out: Plant response rating (scale 0 to 100), Velvetleaf): 100%
- pest or weed control at 16 g/ha ([3]; pre-emergence, Preemergence, 16 g ai/ha, scale 0 to 100 (0 no effect, 100 complete control), read-out: Plant response rating, Velvetleaf): 90%
- pest or weed control at 31 g/ha [3, 11]: 100%
- pest or weed control at 62 g/ha [3, 11]: 100%
- pest or weed control at 31 g/ha ([4]; post-emergence, Postemergence, scale 0 to 100 (0 no effect, 100 complete control), read-out: Waterhemp plant response rating): 90%
- pest or weed control at 62 g/ha [4, 12]: 100%
- pest or weed control at 125 g/ha [4, 12]: 100%
- pest or weed control at 125 g/ha ([4]; pre-emergence, Preemergence, read-out: Plant response rating (scale 0 to 100), Waterhemp): 100%
- pest or weed control at 16 g/ha ([4]; pre-emergence, Preemergence, 16 g ai/ha, scale 0 to 100 (0 no effect, 100 complete control), read-out: Plant response rating, Waterhemp): 100%
- pest or weed control at 31 g/ha [4, 13]: 100%
- pest or weed control at 62 g/ha [4, 13]: 100%
- plant injury at 31 g/ha ([5]; post-emergence, Postemergence, scale 0 to 100 (0 no effect, 100 complete control), read-out: Wheat plant response rating): 5%
- plant injury at 62 g/ha [5, 14]: 5%
- plant injury at 125 g/ha [5, 14]: 10%
- plant injury at 125 g/ha ([5]; pre-emergence, Preemergence, read-out: Plant response rating (scale 0 to 100), Wheat): 10%
- plant injury at 16 g/ha ([5]; pre-emergence, Preemergence, 16 g ai/ha, scale 0 to 100 (0 no effect, 100 complete control), read-out: Plant response rating, Wheat): 0%
- plant injury at 31 g/ha [5, 15]: 0%
- plant injury at 62 g/ha [5, 15]: 5%
